The source of these data is the supplement of paper PMC10307832.

Experiment in all cases: relative viability (nuclei count vs DMSO), 5 days (fraction); higher = more cells survive
Compound in experiment [1]: Cc1ccc(F)c(NC(=O)Nc2ccc(-c3cccc4[nH]nc(N)c34)cc2)c1 [Linifanib] + COc1cccc2cc(-c3nc([C@H]4CC[C@H](C(=O)O)CC4)n4ncnc(N)c34)[nH]c12 [OSI-027] (partner 0.5 µM)
In short, it runs like this:
(§1)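 Dosing by pin tool came one day after lung cancer cell lines were seeded in 1536-well plates, using either one drug or a fixed anchor-drug dose plus five library-drug doses (not always all listed) in √10 steps. After 5 days, nuclei were counted on 4× images. Relative viability is treated-well nuclei count divided by vehicle-well nuclei count, and values are medians of duplicate plates.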

Compound in experiment [2]: Cc1ccc(F)c(NC(=O)Nc2ccc(-c3cccc4[nH]nc(N)c34)cc2)c1 [Linifanib] + O=C(c1cc(Cc2n[nH]c(=O)c3ccccc23)ccc1F)N1CCN(C(=O)C2CC2)CC1 [Olaparib] (partner 8 µM)
In short, it runs like this: as §1

Compound in experiment [3]: Cc1ccc(F)c(NC(=O)Nc2ccc(-c3cccc4[nH]nc(N)c34)cc2)c1 [Linifanib] + CCNC(=O)c1noc(-c2cc(C(C)C)c(O)cc2O)c1-c1ccc(CN2CCOCC2)cc1 [Luminespib] (partner 0.01 µM)
In short, it runs like this: as §1

Compound in experiment [4]: Cc1ccc(F)c(NC(=O)Nc2ccc(-c3cccc4[nH]nc(N)c34)cc2)c1 [Linifanib] + NC(=O)Nc1cc(-c2cccc(F)c2)sc1C(=O)N[C@H]1CCCNC1 [AZD7762] (partner 0.2 µM)
Summed up:
as §1

Compound in experiment [5]: Cc1ccc(F)c(NC(=O)Nc2ccc(-c3cccc4[nH]nc(N)c34)cc2)c1 [Linifanib] + C[C@@H](Oc1cc(-c2cnn(C3CCNCC3)c2)cnc1N)c1c(Cl)ccc(F)c1Cl [Crizotinib] (partner 1 µM)
In short, it runs like this:
as §1

Compound in experiment [6]: Cc1ccc(F)c(NC(=O)Nc2ccc(-c3cccc4[nH]nc(N)c34)cc2)c1 [Linifanib]
In short, it runs like this:
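In 1536-well plates, lung cancer cell lines rested overnight at 37 °C before five library-drug doses (not always all listed), √10 apart, were pinned onto vehicle-anchored plates. Nuclei were counted with MetaXpress from 4× Hoechst images taken after 5 days without medium change. Viability compares treated-well with vehicle-well nuclei as a median over plates, and plates needed control CV below 25% plus at least one doubling to pass.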

With NCI-H3122, the relative viability was found to be 0.947 in experiment [1] (first compound 0.03162 µM); 0.989 in experiment [1] (first compound 0.1 µM); 0.995 in experiment [1] (first compound 0.3162 µM); 0.641 in experiment [2] (first compound 0.03162 µM); 0.637 in experiment [2] (first compound 0.1 µM); 0.61 in experiment [2] (first compound 0.3162 µM). In addition, the relative viability turned out to be 0.0911 in experiment [3] (first compound 0.03162 µM); 0.0897 in experiment [3] (first compound 0.1 µM); 0.0958 in experiment [3] (first compound 0.3162 µM); 1.01 in experiment [4] (first compound 0.03162 µM); 1.04 in experiment [4] (first compound 0.1 µM); 0.977 in experiment [4] (first compound 0.3162 µM). Further, the relative viability in experiment [5] (first compound 0.03162 µM) stood at 0.281; in experiment [5] (first compound 0.1 µM), 0.263; in experiment [5] (first compound 0.3162 µM), 0.261; in experiment [6] (0.03162 µM) it was 1.02; in experiment [6] (0.1 µM), 1.02; in experiment [6] (0.3162 µM) it was 0.975.

Take NCI-H1734: the relative viability was 0.597 in experiment [1] (first compound 0.03162 µM); 0.618 in experiment [1] (first compound 0.1 µM); 0.53 in experiment [1] (first compound 0.3162 µM); 0.591 in experiment [2] (first compound 0.03162 µM); 0.68 in experiment [2] (first compound 0.1 µM); 0.597 in experiment [2] (first compound 0.3162 µM). Moreover, the relative viability worked out at 0.223 in experiment [3] (first compound 0.03162 µM); 0.216 in experiment [3] (first compound 0.1 µM); 0.174 in experiment [3] (first compound 0.3162 µM); 0.564 in experiment [4] (first compound 0.03162 µM); 0.591 in experiment [4] (first compound 0.1 µM); 0.538 in experiment [4] (first compound 0.3162 µM). Further, the relative viability in experiment [5] (first compound 0.03162 µM) is 0.768; in experiment [5] (first compound 0.1 µM), 0.834; in experiment [5] (first compound 0.3162 µM) it was 0.735; in experiment [6] (0.03162 µM), 1.04; in experiment [6] (0.1 µM) it was 1.06; in experiment [6] (0.3162 µM), 0.942.

For the cell line NCI-H1975, the relative viability in experiment [1] (first compound 0.03162 µM) is 0.675; in experiment [1] (first compound 0.1 µM), 0.753; in experiment [1] (first compound 0.3162 µM), 0.706; in experiment [2] (first compound 0.03162 µM) it was 0.797; in experiment [2] (first compound 0.1 µM), 0.881; in experiment [2] (first compound 0.3162 µM), 0.796. The relative viability in experiment [3] (first compound 0.03162 µM) was determined as 0.202; in experiment [3] (first compound 0.1 µM), 0.139; in experiment [3] (first compound 0.3162 µM) it was 0.251; in experiment [4] (first compound 0.03162 µM) it was 0.688; in experiment [4] (first compound 0.1 µM) it was 0.706; in experiment [4] (first compound 0.3162 µM) it was 0.618. The relative viability amounted to 1 in experiment [5] (first compound 0.03162 µM); 1.02 in experiment [5] (first compound 0.1 µM); 0.984 in experiment [5] (first compound 0.3162 µM); 0.987 in experiment [6] (0.03162 µM); 1.03 in experiment [6] (0.1 µM); 0.938 in experiment [6] (0.3162 µM).

For the cell line LU99A, the relative viability amounted to 0.323 in experiment [1] (first compound 0.03162 µM); 0.326 in experiment [1] (first compound 0.1 µM); 0.338 in experiment [1] (first compound 0.3162 µM); 0.289 in experiment [2] (first compound 0.03162 µM); 0.25 in experiment [2] (first compound 0.1 µM); 0.287 in experiment [2] (first compound 0.3162 µM). The relative viability in experiment [3] (first compound 0.03162 µM) was 0.205; in experiment [3] (first compound 0.1 µM), 0.246; in experiment [3] (first compound 0.3162 µM), 0.268; in experiment [4] (first compound 0.03162 µM) it was 0.378; in experiment [4] (first compound 0.1 µM), 0.433; in experiment [4] (first compound 0.3162 µM) it was 0.356. Further, the relative viability in experiment [5] (first compound 0.03162 µM) was determined as 0.61; in experiment [5] (first compound 0.1 µM), 0.57; in experiment [5] (first compound 0.3162 µM), 0.558; in experiment [6] (0.03162 µM), 1.02; in experiment [6] (0.1 µM), 1.03; in experiment [6] (0.3162 µM), 0.853.

NCI-H1355: the relative viability in experiment [1] (first compound 0.03162 µM) is 0.418; in experiment [1] (first compound 0.1 µM), 0.497; in experiment [1] (first compound 0.3162 µM), 0.434; in experiment [2] (first compound 0.03162 µM), 0.768; in experiment [2] (first compound 0.1 µM), 0.832; in experiment [2] (first compound 0.3162 µM) it was 0.726. The relative viability was 0.777 in experiment [3] (first compound 0.03162 µM); 0.672 in experiment [3] (first compound 0.1 µM); 0.648 in experiment [3] (first compound 0.3162 µM); 0.648 in experiment [4] (first compound 0.03162 µM); 0.765 in experiment [4] (first compound 0.1 µM); 0.792 in experiment [4] (first compound 0.3162 µM). Besides, the relative viability in experiment [5] (first compound 0.03162 µM) is 1.04; in experiment [5] (first compound 0.1 µM), 1.02; in experiment [5] (first compound 0.3162 µM), 1.14; in experiment [6] (0.03162 µM), 1.03; in experiment [6] (0.1 µM), 1.07; in experiment [6] (0.3162 µM), 0.99.

NCI-H1792: the relative viability turned out to be 0.526 in experiment [1] (first compound 0.03162 µM); 0.701 in experiment [1] (first compound 0.1 µM); 0.663 in experiment [1] (first compound 0.3162 µM); 0.337 in experiment [2] (first compound 0.03162 µM); 0.532 in experiment [2] (first compound 0.1 µM); 0.375 in experiment [2] (first compound 0.3162 µM). The relative viability in experiment [3] (first compound 0.03162 µM) stood at 0.331; in experiment [3] (first compound 0.1 µM), 0.353; in experiment [3] (first compound 0.3162 µM), 0.464; in experiment [4] (first compound 0.03162 µM), 0.789; in experiment [4] (first compound 0.1 µM), 0.757; in experiment [4] (first compound 0.3162 µM) it was 0.588. Also, the relative viability is 0.941 in experiment [5] (first compound 0.03162 µM); 1.06 in experiment [5] (first compound 0.1 µM); 0.984 in experiment [5] (first compound 0.3162 µM); 0.935 in experiment [6] (0.03162 µM); 0.944 in experiment [6] (0.1 µM); 0.928 in experiment [6] (0.3162 µM).

As for LCLC-103H, the relative viability was 0.514 in experiment [1] (first compound 0.03162 µM); 0.481 in experiment [1] (first compound 0.1 µM); 0.408 in experiment [1] (first compound 0.3162 µM); 0.752 in experiment [2] (first compound 0.03162 µM); 0.78 in experiment [2] (first compound 0.1 µM); 0.732 in experiment [2] (first compound 0.3162 µM). Also, the relative viability stood at 0.971 in experiment [3] (first compound 0.03162 µM); 0.973 in experiment [3] (first compound 0.1 µM); 0.889 in experiment [3] (first compound 0.3162 µM); 0.892 in experiment [4] (first compound 0.03162 µM); 0.721 in experiment [4] (first compound 0.1 µM); 0.792 in experiment [4] (first compound 0.3162 µM). In addition, the relative viability in experiment [5] (first compound 0.03162 µM) came to 1.05; in experiment [5] (first compound 0.1 µM), 1.2; in experiment [5] (first compound 0.3162 µM) it was 0.943; in experiment [6] (0.03162 µM), 1.02; in experiment [6] (0.1 µM), 1.03; in experiment [6] (0.3162 µM) it was 0.981.

Turning to LOU-NH91, the relative viability came to 0.697 in experiment [1] (first compound 0.03162 µM); 0.796 in experiment [1] (first compound 0.1 µM); 0.709 in experiment [1] (first compound 0.3162 µM); 0.909 in experiment [2] (first compound 0.03162 µM); 0.956 in experiment [2] (first compound 0.1 µM); 0.869 in experiment [2] (first compound 0.3162 µM). The relative viability in experiment [3] (first compound 0.03162 µM) is 0.394; in experiment [3] (first compound 0.1 µM), 0.324; in experiment [3] (first compound 0.3162 µM), 0.319; in experiment [4] (first compound 0.03162 µM) it was 0.752; in experiment [4] (first compound 0.1 µM), 0.816; in experiment [4] (first compound 0.3162 µM), 0.739. Further, the relative viability in experiment [5] (first compound 0.03162 µM) came out at 0.74; in experiment [5] (first compound 0.1 µM), 0.767; in experiment [5] (first compound 0.3162 µM), 0.769; in experiment [6] (0.03162 µM) it was 0.979; in experiment [6] (0.1 µM) it was 1.07; in experiment [6] (0.3162 µM) it was 0.951.
